Data on eight compounds can be found in US20070167488A1, “Novel therapeutic use” (Leo Pharma A/S, priority 2003, published 2007).

Assay [1] relates to EAE induced in SJL/J mice with a peptide from myelin proteolipid protein (PLP139-153). Description: EAE model in SJL/J mice immunized with PLP139-153 peptide. The assay is classed as in vivo, mouse. The settings on record: for Inhibition of EAE compared with the suspension vehicle group (in words): SJL/J mice, PLP139-153, doses as in tables 1 and 3; for inhibition of EAE: another experiment (data not shown).

Another assay concerns IL-2. Briefly: IL-2 production by spleen cells of immunized, dosed mice after in vitro restimulation with PLP139-153. The note with it: for Level of antigen-specific IL-2 production of spleen cells: example 6, vs vehicle treated group. The assay is classed as cell-based, mouse.
The test system of another assay is IL-6. Briefly: IL-6 production by spleen cells of immunized, dosed mice after in vitro restimulation with PLP139-153. The note with it: example 6, 50 mg/kg i.p. daily for 10 days, vs vehicle treated group. The assay is classed as cell-based, mouse.
A further assay has as its system IFN-γ. Description: IFN-γ production by spleen cells of immunized, dosed mice after in vitro restimulation with PLP139-153. The assay is classed as cell-based, mouse. The settings on record: example 6, 50 mg/kg i.p. daily for 10 days, vs vehicle treated group.
For the next assay, the system named is IL-17. Description: IL-17 production by spleen cells of immunized, dosed mice after in vitro restimulation with PLP139-153. The note with it: example 6, 50 mg/kg i.p. daily for 10 days, vs vehicle treated group. Format: cell-based, mouse.
A further assay concerns the target JAK-2 kinase (Mus musculus, UniProt Q62120). The settings on record: J. J. Bright et al., J. Immunol. 162, 1999; cited from earlier work.
Assay [2] deals with lymphocyte adhesion to inflamed vessels. The note with it: G. Constantin et al., J. Immunol. 162, 1999; cited from earlier work.
Assay [3] relates to EAE in C57BL/6 mice immunized with a peptide from myelin oligodendrocyte glycoprotein (MOG35-55). Description: Second EAE model: C57BL/6JBom mice immunized with MOG35-55 peptide. Format: in vivo, mouse.
For assay [4], the system named is gene expression in inflammatory cells in the spleen. Briefly: Oligonucleotide array of spleen cDNA from treated and control EAE mice. Format: in vivo, mouse. As to the method: Control mice were given suspension vehicle as described in example 1. On day 7 after treatment, the mice (both treated and control) were sacrificed and their spleens were excised, submerged into the RNA storage solution RNA-later (Sigma-Aldrich, St. Louis, USA) and stored at −80° C. Total RNA was extracted from the mouse spleens using the TRIZOL extraction procedure according to the manufacturer's protocol followed by DNAse treatment (Invitrogen, Carlsbad, Calif., USA). The RNA quality was visualized by agarose gel electrophoresis. Ten μg total RNA was converted into purified ^33P-labelled cDNA probe according to the Atlas Pure Total RNA labelling protocol (BD Biosciences, Palo Alto, Calif., USA).
Labelled probes (10×10^6 CPM) were denatured at 95° C. for 2 minutes and cooled at 4° C. for 2 minutes prior to hybridization to oligonucleotide arrays comprising about 5.000 mouse genes in duplicate dots (Atlas Plastic Mouse 5K MicroArray, BD Biosciences, Palo Alto, Calif., USA). Arrays were hybridized for 16 h at 60° C. with rotation according to the manufacturer's protocol. After hybridization and appropriate washing steps, the arrays were imaged using phospho imager technology together with a STORM 860 scanner (Molecular Dynamics, Sunnyvale, Calif., USA). Subsequently, the images were analysed using the Atlas Image 2.7 software (BD Biosciences, Palo Alto, Calif., USA).

Where [5] appears, read: Table 3, experiment with vehicle AUC 28.6, day 0-21, 50 mg/kg i.p. daily.
Where [6] appears, read: Table 7, 50 mg/kg p.o., suspension vehicle.
[7] abbreviates: listed as 3-(1H-indol-3-ylmethylene)-1,3-dihydro-indol-2-one.
[8] abbreviates: Table 3, experiment with vehicle AUC 42.75, day 0-21, 50 mg/kg i.p. daily.
Setting [9] is: Exp. 1, terminated day 21, 50 mg/kg i.p. daily.
Setting [10] is: Exp. 2, terminated day 21, 4 mg/kg i.p. daily.
The mark [11] stands for this setting: Exp. 2, terminated day 21, 10 mg/kg i.p. daily.
Setting [12] is: Exp. 2, terminated day 21, 25 mg/kg i.p. daily.
Where [13] appears, read: Exp. 2, terminated day 21, 50 mg/kg i.p. daily.
Setting [14] is: Exp. 3, terminated day 28, 25 mg/kg i.p. daily.
Setting [15] is: Exp. 3, terminated day 28, 50 mg/kg i.p. daily.
Setting [16] is: Exp. 4, terminated day 35, 50 mg/kg i.p. daily.
The mark [17] stands for this setting: MOG35-55, day 0-21, 50 mg/kg i.p. daily.
Where [18] appears, read: Exp. 1, terminated day 21, dexamethasone 0.5 mg/kg from day 0.
[19] abbreviates: Exp. 2, terminated day 21, dexamethasone 1 mg/kg from day 1.
Where [20] appears, read: Exp. 3, terminated day 28, dexamethasone 1 mg/kg from day 1.
Where [21] appears, read: Table 3, experiment with compound 57 (vehicle AUC 28.6), day 0-21, dexamethasone 1 mg/kg p.o.
The mark [22] stands for this setting: Table 3, experiment with compound 110 (vehicle AUC 42.75), day 0-21, dexamethasone 1 mg/kg p.o.
The mark [23] stands for this setting: MOG35-55, day 0-21, dexamethasone 1 mg/kg p.o.

Each structure is given as a SMILES string. Marks after values point to notes of the source that are not given here.

Chain of JAK-2 kinase (Q62120 whole entry): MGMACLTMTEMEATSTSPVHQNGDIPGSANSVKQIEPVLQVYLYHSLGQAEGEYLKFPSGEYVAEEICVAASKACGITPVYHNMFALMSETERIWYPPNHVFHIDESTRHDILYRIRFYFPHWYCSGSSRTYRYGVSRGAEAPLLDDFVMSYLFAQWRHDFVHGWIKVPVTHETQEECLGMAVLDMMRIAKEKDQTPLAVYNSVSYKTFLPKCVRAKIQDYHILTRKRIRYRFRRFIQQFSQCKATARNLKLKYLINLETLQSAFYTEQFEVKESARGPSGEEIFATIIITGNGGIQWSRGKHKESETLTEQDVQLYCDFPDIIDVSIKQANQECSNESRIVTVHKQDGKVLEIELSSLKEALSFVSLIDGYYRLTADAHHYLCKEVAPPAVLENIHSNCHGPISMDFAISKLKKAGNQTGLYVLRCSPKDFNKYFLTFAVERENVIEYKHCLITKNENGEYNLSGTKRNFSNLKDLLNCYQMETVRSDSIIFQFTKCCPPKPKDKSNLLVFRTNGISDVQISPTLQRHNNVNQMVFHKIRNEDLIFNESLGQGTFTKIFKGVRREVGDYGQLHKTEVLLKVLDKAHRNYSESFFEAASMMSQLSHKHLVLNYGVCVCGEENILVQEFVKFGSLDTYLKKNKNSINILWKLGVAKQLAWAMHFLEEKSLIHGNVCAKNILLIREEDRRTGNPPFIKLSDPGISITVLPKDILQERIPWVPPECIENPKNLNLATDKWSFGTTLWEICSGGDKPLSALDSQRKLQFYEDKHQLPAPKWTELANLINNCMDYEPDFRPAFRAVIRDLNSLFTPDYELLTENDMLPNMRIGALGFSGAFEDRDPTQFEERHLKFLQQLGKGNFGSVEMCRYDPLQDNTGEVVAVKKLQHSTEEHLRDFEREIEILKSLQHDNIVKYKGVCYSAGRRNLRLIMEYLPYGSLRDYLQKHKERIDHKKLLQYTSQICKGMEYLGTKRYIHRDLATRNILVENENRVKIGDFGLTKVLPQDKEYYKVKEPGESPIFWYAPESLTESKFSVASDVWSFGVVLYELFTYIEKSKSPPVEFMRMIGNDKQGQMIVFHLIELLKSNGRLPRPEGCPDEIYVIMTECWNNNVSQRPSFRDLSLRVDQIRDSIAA

`O=C1Nc2ccccc2C1=Cc1c[nH]c2ccccc12` (racemic) [Compound 57, 3-(1H-indol-3-ylmethylene)-1,3-dihydro-indol-2-one]: in [1], the “Inhibition of EAE compared with the suspension vehicle group (in words)” value was “clear and significant inhibition”. The “AUC (mean) of the disease score” value in assay [1] (setting [5]) amounted to 4.70. The “inhibition (%)” value in assay [1] (setting [5]) worked out at 84%. Also, the “Inhibition (%) of EAE (area-under-curve of the disease score)” value (from here on “Inhibition (%) of EAE”) in assay [1] (setting [6]) worked out at 32%. The “Level of antigen-specific IL-2 production of spleen cells” value in the assay on IL-2 (50 mg/kg i.p. daily for 10 days, listed as 3-(1H-indol-3-ylmethylene)-1,3-dihydro-indol-2-one) was “inhibit expression”; in the assay with IL-2 (50 mg/kg i.p. daily for 10 days, listed as compound 57), “clearly reduced”. Also, the entries for the “Level of antigen-specific IL-6 production of spleen cells” value with IL-6 (setting [7]) and in the assay with IL-6 (listed as compound 57) were “inhibit expression” and “clearly reduced”, respectively. Also, the “Level of antigen-specific IFN-γ production of spleen cells” value is “inhibit expression” in the assay on IFN-γ (setting [7]) and “clearly reduced” in the assay on IFN-γ (listed as compound 57). In addition, the “Level of antigen-specific IL-17 production of spleen cells” value in the assay with IL-17 (setting [7]) is reported as “inhibit expression”; in the assay on IL-17 (listed as compound 57), “clearly reduced”.
Turning to `Cc1cc(C)c(C=C2C(=O)Nc3ccccc32)[nH]1` [3-(3,5-dimethyl-1H-pyrrol-2-ylmethylene)-1,3-dihydro-indol-2-one], in the assay on IL-2 (50 mg/kg i.p. daily for 10 days), the “Level of antigen-specific IL-2 production of spleen cells” value is given as “inhibit expression”. In addition, in the assay with IL-6, the “Level of antigen-specific IL-6 production of spleen cells” value is “inhibit expression”. For the same compound, in the assay on IFN-γ, the “Level of antigen-specific IFN-γ production of spleen cells” value is recorded as “inhibit expression”. Besides, in the assay with IL-17, the “Level of antigen-specific IL-17 production of spleen cells” value is “inhibit expression”.
On to `N#C/C(=C\c1ccc(O)c(O)c1)C(=O)NCc1ccccc1` [tyrphostin B42], for which the “Inhibition of IL-12 induced tyrosine phosphorylation and activation of JAK-2 kinase” value at JAK-2 kinase is recorded as “inhibit”. In assay [2], the “Inhibition of lymphocyte adhesion to inflamed vessels” value is “effective inhibitor”.
Regarding `COc1ccc(OC)c(/C=C2/C(=O)Nc3ccccc32)c1` [Compound 110, 3-(2,5-dimethoxy-benzylidene)-1,3-dihydro-indol-2-one], the “Inhibition of EAE compared with the suspension vehicle group (in words)” value in [1] is “clear and significant inhibition”. In addition, the “AUC (mean) of the disease score” value in assay [1] (setting [8]) came out at 12.15. Also, the “inhibition (%)” value in assay [1] (setting [8]) is 72%. In addition, the “Inhibition (%) of EAE” value in assay [1] (setting [6]) is on record as 47%; in assay [1] (Table 7, 50 mg/kg p.o., suspension vehicle adjusted to pH 4 by addition of aqueous HCl) it was 67** %. The “inhibition of EAE” value in assay [1] (50 mg/kg, highest dose) stood at 90%; in [1] (lowest dose (significant at 50, 25 and 10 mg/kg; 4 mg/kg also given)), 42%.
Consider `Cc1cc(C)c(C=C2C(=O)Nc3ccccc32)[nH]1` [Compound 226, 3-(3,5-dimethyl-1H-pyrrol-2-ylmethylene)-1,3-dihydro-indol-2-one], for which the “AUC (mean) of the disease score” value in assay [1] (setting [9]) was determined as 1.8; in [1] (setting [10]), 21.2; in [1] (setting [11]), 19.6; in assay [1] (setting [12]), 4.6; in assay [1] (setting [13]), 0.6; in assay [1] (setting [14]), 11.9. Moreover, the results for the “AUC (mean) of the disease score” value in [1] (setting [15]), in assay [1] (setting [16]) and in assay [3] (setting [17]) were 6.6, 21.9 and 2.65, respectively. Further, the “inhibition (%)” value in [1] (setting [9]) is reported as 90%; in assay [1] (setting [10]), 17%; in assay [1] (setting [11]), 23%; in assay [1] (setting [12]) it was 82%; in assay [1] (setting [13]) it was 98%; in [1] (setting [14]), 70%. The “inhibition (%)” value came out at 83% in assay [1] (setting [15]), 65% in assay [1] (setting [16]) and 83% in assay [3] (setting [17]). Moreover, the “Inhibition of EAE compared with the suspension vehicle group (in words)” value in assay [1] is on record as “significantly inhibit”. The “Effect on development of EAE in prolonged experiments (in words)” value in assay [1] (experiments 3 and 4, prolonged with one and two weeks) was “delays development of EAE rather than prevents the disease”. Also, the “Effect on disease development (in words)” value in assay [3] (MOG35-55, 50 mg/kg i.p.) was “significant effect on disease development”. For the same compound, the “IL-2 production of restimulated spleen cells after in vivo dosing” value in the assay with IL-2 (50 mg/kg i.p. daily for 10 days, spleen cells day 10, PLP139-153, 3 days culture) is listed as “markedly inhibited”. For the same compound, the “IL-2 production of cells from suspension vehicle treated mice on in vitro incubation with compound” value with IL-2 (10^−7 M in vitro for 3 days) is “did not inhibit”. The “Level of antigen-specific IL-2 production of spleen cells” value in the assay with IL-2 (50 mg/kg i.p. daily for 10 days, listed as compound 226) is “clearly reduced”. For the same compound, the “Level of antigen-specific IL-6 production of spleen cells” value in the assay with IL-6 (listed as compound 226) is “clearly reduced”. Moreover, in the assay on IFN-γ (listed as compound 226), the “Level of antigen-specific IFN-γ production of spleen cells” value is “clearly reduced”. In addition, the “Level of antigen-specific IL-17 production of spleen cells” value with IL-17 (listed as compound 226) was “clearly reduced”. For the same compound, the “Genes on the Atlas MicroArray differentially expressed, treated vs control mice” value in assay [4] (day 7, daily dosing from day 0) is reported as “Approximately 1.5%”. The “Expression of genes encoding adhesion molecules (lymphocyte antigens 6 locus D, 6 locus E, 84)” value in [4] (day 7, treated vs control mice) is reported as “upregulated”. Besides, in [4] (day 7, treated vs control mice), the “Expression of genes encoding interleukin 1 receptor, interleukin 10 receptor alpha, TNF receptor and TNF receptor-associated factor 1” value is “downregulated”.
On to `C[C@@H]1C[C@H]2[C@@H]3CCC4=CC(=O)C=C[C@]4(C)[C@@]3(F)[C@@H](O)C[C@]2(C)[C@@]1(O)C(=O)CO` [Dexamethasone, dexamethasone, reference compound], for which the “AUC (mean) of the disease score” value in assay [1] (setting [18]) is 4.3; in assay [1] (setting [19]) it was 11.8; in [1] (setting [20]), 0.8; in assay [1] (setting [21]), 13.15; in assay [1] (setting [22]) it was 8.85; in [3] (setting [23]), 0.00. The “inhibition (%)” value in assay [1] (setting [18]) was found to be 75%; in assay [1] (setting [19]), 54%; in assay [1] (setting [20]) it was 98%; in assay [1] (setting [21]), 54%; in assay [1] (setting [22]) it was 79%; in [3] (setting [23]), 100%.
Turning to `COc1ccc(CN(C)C)cc1/C=C1/C(=O)Nc2ccccc21` [Compound 32, 3-(5-dimethylaminomethyl-2-methoxy-benzylidene)-1,3-dihydro-indol-2-one], the “Inhibition (%) of EAE” value in [1] (setting [6]) is 40%.
Regarding `CC(=O)ON1C(=O)/C(=C\c2[nH]c(C)cc2C)c2ccccc21` [Compound 51, acetic acid 3-(3,5-dimethyl-1H-pyrrol-2-ylmethylene)-2-oxo-2,3-dihydro-indol-1-yl ester], in [1] (Table 4, 50 mg/kg daily, treatment as in example 4), the “Inhibition (%) of EAE” value was 48%.
